According to patent US20260274895A1, “DE NOVO DESIGNED MEMBRANE-TRAVERSING AND ORALLY BIOAVAILABLE MACROCYCLES” (UNIVERSITY OF WASHINGTON, priority 2022, published 2026):
Where a SMILES comes first, the peptide text is derived from it. [ ]: non-standard residue; d: D form. NMeF = CN[C@@H](Cc1ccccc1)C(=O)O; NMeI = CC[C@H](C)[C@H](NC)C(=O)O; NMeL = CN[C@@H](CC(C)C)C(=O)O; dNMeL = CN[C@H](CC(C)C)C(=O)O; NMeM = CN[C@@H](CCSC)C(=O)O; NMeV = CN[C@H](C(=O)O)C(C)C; NMeA = CN[C@@H](C)C(=O)O; Nle = CCCC[C@H](N)C(=O)O; dNMeA = CN[C@H](C)C(=O)O

Conditions: PAMPA

CC(C)C[C@@H]1C(=O)N[C@H](C(C)C)C(=O)N(C)[C@@H](C(C)C)C(=O)N2CCC[C@H]2C(=O)N2CCC[C@@H]2C(=O)N[C@@H](C)C(=O)N(C)[C@@H](Cc2ccccc2)C(=O)N(C)[C@H](CC(C)C)C(=O)N[C@H](C)C(=O)N1C [Design D9.17, pA*F*la*lv*VP] (cyclo(A[NMeF][dNMeL][dA][dNMeL][dV][NMeV]P[dP]))
PAMPA_Papp_Avg (apparent permeability): 1.74 ×10⁻⁶ cm/s

CC(C)C[C@@H]1C(=O)N(C)[C@H](CC(C)C)C(=O)N2CCC[C@H]2C(=O)N[C@H](CC(C)C)C(=O)N2CCC[C@@H]2C(=O)N2CCC[C@@H]2C(=O)N(C)[C@H](CC(C)C)C(=O)N[C@H](Cc2ccccc2)C(=O)N[C@@H](C)C(=O)N1C [Design D9.18, A*l*lPlpp*lf] (cyclo(A[dNMeL][dNMeL]P[dL][dP][dP][dNMeL][dF]))
PAMPA_Papp_Avg (apparent permeability): 1.76 ×10⁻⁶ cm/s

CC(C)C[C@@H]1NC(=O)[C@@H](CC(C)C)NC(=O)[C@@H](CC(C)C)N(C)C(=O)[C@@H](CC(C)C)N(C)C(=O)[C@H](C(C)C)NC(=O)[C@@H](C)N(C)C(=O)[C@@H]2CCCN2C(=O)[C@@H]2CCCN2C(=O)[C@@H](C)N(C)C1=O [Design D9.19, P*aV*l*llL*aP] (cyclo(L[dNMeA]PP[dNMeA]V[dNMeL][dNMeL][dL]))
PAMPA_Papp_Avg (apparent permeability): 1.28 ×10⁻⁶ cm/s

CCCC[C@@H]1NC(=O)[C@H](C(C)C)NC(=O)[C@H]2CCCN2C(=O)[C@@H]2CCCN2C(=O)[C@H](C)NC(=O)[C@@H](C)N(C)C(=O)[C@@H](CC(C)C)N(C)C(=O)[C@@H](C(C)C)NC(=O)[C@@H]2CCCN2C1=O [Design D9.21, APpVMPv*l*a] (cyclo(AP[dP]V[Nle]P[dV][dNMeL][dNMeA]))
PAMPA_Papp_Avg (apparent permeability): 0.294 ×10⁻⁶ cm/s

CC(C)C[C@@H]1NC(=O)[C@@H]2CCCN2C(=O)[C@H]2CCCN2C(=O)[C@@H](C)N(C)C(=O)[C@@H](CC(C)C)N(C)C(=O)[C@H](C(C)C)NC(=O)[C@@H](C)N(C)C(=O)[C@H]2CCCN2C(=O)[C@@H]2CCCN2C1=O [Design D9.22, p*aV*l*apPLP] (cyclo(LP[dP][dNMeA]V[dNMeL][dNMeA][dP]P))
PAMPA_Papp_Avg (apparent permeability): 0.189 ×10⁻⁶ cm/s

CC[C@@H](C)[C@H]1NC(=O)[C@@H](CC(C)C)NC(=O)[C@@H]2CCCN2C(=O)[C@H]2CCCN2C(=O)[C@@H](C(C)C)NC(=O)[C@H](C)NC(=O)[C@@H]2CCCN2C(=O)[C@@H]([C@H](C)CC)NC(=O)[C@@H](C)N(C)C1=O [Design D9.23, i*aiPAVpPl] (cyclo([dL][dI][dNMeA][dI]PA[dV][dP]P))
PAMPA_Papp_Avg (apparent permeability): 0.141 ×10⁻⁶ cm/s

CSCC[C@H]1C(=O)N(C)[C@H](C)C(=O)N[C@H](CC(C)C)C(=O)N2CCC[C@@H]2C(=O)N2CCC[C@H]2C(=O)N[C@@H](CC(C)C)C(=O)N2CCC[C@H]2C(=O)N2CCC[C@@H]2C(=O)N[C@H](C(C)C)C(=O)N1C [Design D9.24, pv*M*alpPLP] (cyclo(LP[dP][dV][NMeM][dNMeA][dL][dP]P))
PAMPA_Papp_Avg (apparent permeability): 0.0869 ×10⁻⁶ cm/s

CC(C)C[C@@H]1NC(=O)[C@H](Cc2ccccc2)N(C)C(=O)[C@H]2CCCN2C(=O)[C@@H](CC(C)C)NC(=O)[C@@H](CC(C)C)NC(=O)[C@H](C)NC(=O)[C@H]2CCCN2C(=O)[C@@H]2CCCN2C(=O)[C@@H](C(C)C)NC1=O [Design D9.32, pAllp*FLvP] (cyclo(A[dL][dL][dP][NMeF]L[dV]P[dP]))
PAMPA_Papp_Avg (apparent permeability): 0.24 ×10⁻⁶ cm/s

CC[C@H](C)[C@@H]1NC(=O)CNC(=O)[C@@H]2CCCN2C(=O)[C@H]2CCCN2C(=O)[C@H]([C@@H](C)CC)NC(=O)[C@@H](C)N(C)C(=O)[C@@H]2CCCN2C(=O)[C@H](C(C)C)NC(=O)[C@@H](CC(C)C)NC1=O [Design D9.33, pPGIlVP*aI] (cyclo(GI[dL]VP[dNMeA]I[dP]P))
PAMPA_Papp_Avg (apparent permeability): 0.317 ×10⁻⁶ cm/s

CCCC[C@@H]1NC(=O)[C@H]2CCCN2C(=O)[C@H](C(C)C)NC(=O)[C@@H](CC(C)C)N(C)C(=O)[C@H](Cc2ccccc2)NC(=O)[C@H](CC(C)C)NC(=O)[C@@H](CC(C)C)N(C)C(=O)[C@@H]2CCCN2C(=O)[C@@H](CC(C)C)NC1=O [Design D9.40, pMlP*lLF*lV] (cyclo(F[dNMeL]V[dP][Nle][dL]P[dNMeL]L))
PAMPA_Papp_Avg (apparent permeability): 0.238 ×10⁻⁶ cm/s

CC[C@H](C)[C@@H]1NC(=O)[C@H]2CCCN2C(=O)[C@@H]2CCCN2C(=O)[C@H](C(C)C)NC(=O)[C@@H](C(C)C)NC(=O)[C@H](Cc2ccccc2)N(C)C(=O)[C@H]2CCCN2C(=O)[C@@H](CC(C)C)N(C)C(=O)[C@@H](CC(C)C)NC1=O [Design D9.42, pIl*lp*FvVP] (cyclo(I[dL][dNMeL][dP][NMeF][dV]VP[dP]))
PAMPA_Papp_Avg (apparent permeability): 1.12 ×10⁻⁶ cm/s

CC(C)C[C@@H]1NC(=O)[C@@H](CC(C)C)NC(=O)[C@@H]2CCCN2C(=O)[C@@H](CC(C)C)NC(=O)[C@H](C)N(C)C(=O)[C@H](C)NC(=O)[C@H](CC(C)C)N(C)C(=O)[C@@H]2CCCN2C(=O)[C@H](CC(C)C)NC(=O)[C@H](CC(C)C)N(C)C1=O [Design D10.16, lL*LLP*LA*AlP] (cyclo(A[NMeA][dL]P[dL]L[NMeL]LP[NMeL]))
PAMPA_Papp_Avg (apparent permeability): 2.27 ×10⁻⁶ cm/s

CC[C@H](C)[C@H]1C(=O)N[C@H](C)C(=O)N[C@@H](CC(C)C)C(=O)N[C@@H](C(C)C)C(=O)N2CCC[C@@H]2C(=O)N(C)[C@@H](CC(C)C)C(=O)N[C@@H](C(C)C)C(=O)N2CCC[C@H]2C(=O)N(C)[C@H](CC(C)C)C(=O)N[C@@H](C(C)C)C(=O)N1C [Design D10.19, aLVp*LVP*lV*I] (cyclo(LV[dP][NMeL]VP[dNMeL]V[NMeI][dA]))
PAMPA_Papp_Avg (apparent permeability): 6.36 ×10⁻⁶ cm/s

CC(C)C[C@@H]1NC(=O)[C@@H](Cc2ccccc2)NC(=O)[C@@H](CC(C)C)N(C)C(=O)[C@@H]2CCCN2C(=O)[C@H](C)NC(=O)[C@@H](CC(C)C)N(C)C(=O)[C@@H]2CCCN2C(=O)[C@H](CC(C)C)N(C)C(=O)[C@H](CC(C)C)N(C)C(=O)[C@H](C(C)C)NC1=O [Design D10.20, P*lAP*lfLV*L*L] (cyclo(AP[dNMeL][dF]LV[NMeL][NMeL]P[dNMeL]))
PAMPA_Papp_Avg (apparent permeability): 2.59 ×10⁻⁶ cm/s

CC(C)[C@@H]1NC(=O)[C@H]2CCCN2C(=O)[C@@H](C(C)C)NC(=O)[C@@H]2CCCN2C(=O)[C@H](Cc2ccccc2)NC(=O)[C@H](Cc2ccccc2)NC(=O)[C@H]2CCCN2C(=O)[C@@H](C(C)C)NC(=O)[C@@H]2CCCN2C(=O)[C@H](C(C)C)NC1=O [Design D10.27, PvpVVPvpFF] (cyclo(FFP[dV][dP]VVP[dV][dP]))
PAMPA_Papp_Avg (apparent permeability): 0.49 ×10⁻⁶ cm/s

CC(C)C[C@@H]1C(=O)N[C@@H](C)C(=O)N[C@H](CC(C)C)C(=O)N(C)[C@@H](C)C(=O)N2CCC[C@@H]2C(=O)N2CCC[C@@H]2C(=O)N2CCC[C@@H]2C(=O)N2CCC[C@H]2C(=O)N[C@H](C(C)C)C(=O)N(C)[C@@H](CC(C)C)C(=O)N1C [Design D10.28, l*ApppPv*L*lA] (cyclo([dV][NMeL][dNMeL]A[dL][NMeA][dP][dP][dP]P))
PAMPA_Papp_Avg (apparent permeability): 0.184 ×10⁻⁶ cm/s

CC(C)C[C@@H]1C(=O)N(C)[C@H](C)C(=O)N(C)[C@@H](C(C)C)C(=O)N2CCC[C@@H]2C(=O)N[C@H](C)C(=O)N[C@@H](Cc2ccccc2)C(=O)N2CCC[C@@H]2C(=O)N2CCC[C@H]2C(=O)N[C@H](C(C)C)C(=O)N[C@@H](C(C)C)C(=O)N1C [Design D10.29, FpPvV*l*a*Vpa] (cyclo([dV]V[dNMeL][dNMeA][NMeV][dP][dA]F[dP]P))
PAMPA_Papp_Avg (apparent permeability): 0.441 ×10⁻⁶ cm/s

CC[C@@H](C)[C@H]1NC(=O)[C@H](Cc2ccccc2)NC(=O)[C@@H](CC(C)C)N(C)C(=O)[C@@H]2CCCN2C(=O)[C@@H](C(C)C)NC(=O)[C@@H](C)N(C)C(=O)[C@H]2CCCN2C(=O)[C@@H](CC(C)C)NC(=O)[C@H](CC(C)C)NC(=O)[C@@H]2CCCN2C1=O [Design D10.30, P*lFiPLlp*av] (cyclo(F[dI]PL[dL][dP][dNMeA][dV]P[dNMeL]))
PAMPA_Papp_Avg (apparent permeability): 4.78 ×10⁻⁶ cm/s

CC[C@H](C)[C@@H]1NC(=O)[C@@H](CC(C)C)NC(=O)[C@@H](C)N(C)C(=O)[C@H](Cc2ccccc2)NC(=O)[C@@H](CC(C)C)NC(=O)[C@@H](C)N(C)C(=O)[C@@H]2CCCN2C(=O)[C@H](C(C)C)NC(=O)[C@H]2CCCN2C(=O)[C@@H]2CCCN2C1=O [Design D10.31, F*alIPpVP*al] (cyclo(F[dNMeA][dL]IP[dP]VP[dNMeA][dL]))
PAMPA_Papp_Avg (apparent permeability): 1.9 ×10⁻⁶ cm/s

CC[C@@H](C)[C@H]1NC(=O)[C@@H](Cc2ccccc2)NC(=O)[C@@H](CC(C)C)NC(=O)[C@@H]2CCCN2C(=O)[C@H]2CCCN2C(=O)[C@H](CC(C)C)NC(=O)[C@H](CC(C)C)NC(=O)[C@@H](CC(C)C)N(C)C(=O)[C@H](C)N(C)C(=O)[C@H]2CCCN2C1=O [Design D10.34, fip*A*lLLpPl] (cyclo([dL][dF][dI][dP][NMeA][dNMeL]LL[dP]P))
PAMPA_Papp_Avg (apparent permeability): 4.51 ×10⁻⁶ cm/s

CC(C)C[C@@H]1NC(=O)[C@H](C(C)C)NC(=O)[C@@H](CC(C)C)N(C)C(=O)[C@H](C)NC(=O)[C@@H](CC(C)C)N(C)C(=O)[C@@H]2CCCN2C(=O)[C@H]2CCCN2C(=O)[C@H](C)N(C)C(=O)[C@H]2CCCN2C(=O)[C@@H](CC(C)C)NC1=O [Design D10.35, Llp*ApP*LA*lV] (cyclo([dNMeL]A[dNMeL]VL[dL][dP][NMeA][dP]P))
PAMPA_Papp_Avg (apparent permeability): 0.279 ×10⁻⁶ cm/s

CC[C@@H](C)[C@H]1NC(=O)[C@@H](Cc2ccccc2)NC(=O)[C@H](CC(C)C)NC(=O)[C@@H](C)N(C)C(=O)[C@@H](CC(C)C)NC(=O)[C@H](CC(C)C)NC(=O)[C@H]2CCCN2C(=O)[C@@H]2CCCN2C(=O)[C@@H](C)NC(=O)[C@H]2CCCN2C1=O [Design D10.37, l*aLfipaPpL] (cyclo(L[dF][dI][dP][dA]P[dP]L[dL][dNMeA]))
PAMPA_Papp_Avg (apparent permeability): 0.654 ×10⁻⁶ cm/s

CC[C@@H](C)[C@H]1NC(=O)[C@H]2CCCN2C(=O)[C@@H]2CCCN2C(=O)[C@@H](CC(C)C)NC(=O)[C@H](C)NC(=O)[C@@H](CC(C)C)N(C)C(=O)[C@@H](C)N(C)C(=O)[C@@H]2CCCN2C(=O)[C@@H]([C@H](C)CC)NC(=O)[C@@H](CC(C)C)N(C)C1=O [Design D10.39, P*a*lAlPpi*li] (cyclo(A[dL]P[dP][dI][dNMeL][dI]P[dNMeA][dNMeL]))
PAMPA_Papp_Avg (apparent permeability): 1.48 ×10⁻⁶ cm/s
